In paper PMC4393269, “Carvacrol Codrugs: A New Approach in the Antimicrobial Plan” (PLoS ONE, 2015):
Converted amounts (≈) assume the structure as drawn.

Tests used:
[1] = system: human red blood cells (h-RBC); experiment: Hemolytic activity; assay type: cell-based
Experimental: Experimental protocols to study hemolysis on human red cells were approved by Ethics Committee of the University “G. d’Annunzio” Chieti-Pescara. Human red cells were from two volunteers, who signed the informed consent for this study.
Hemolytic activity of carvacrol codrugs 1–10 was tested against human red blood cells (h-RBC). Fresh human blood, collected with EDTA, was centrifuged at 3000 rpm for 5 min then washed three times with PBS pH 7.3. Red blood cells were diluted to 4% in PBS and incubated with different codrugs concentrations ranging from 25 to 0.05 mg/mL. After 1 h of incubation at 37°C, the suspensions were sedimented by centrifugation and the release of hemoglobin was determined by absorbance measurement at 405 nm and compared with a 0% hemolysis control (PBS) and a 100% hemolysis control (PBS with 1% v/v Triton X-100). The percentage of hemolysis was calculated using the following equation: Hemolysis (%) = [(OD405sample - OD4050% lysis control)/(OD405100% lysis control - OD4050% lysis contro)] X 100

C. albicans ATCC 10231 [2] = experiment: Broth microdilution MIC/MFC; assay type: cell-based; settings: Candida albicans, ATCC10231
Experimental: Two Gram-positive (S. aureus ATCC 29213 and S. epidermidis ATCC 35984) and two Gram-negative (E. coli ATCC 8739 and P. aeruginosa ATCC 9027) strains, and one fungal strain (C. albicans ATCC 10231) were used for the detection of antibacterial activity of carvacrol, NAC, Ac-Cys(Allyl)-OH, and carvacrol codrugs 1–10. All tested compounds were dissolved in 20% DMSO to prepare the stock solution (100 mg/mL). The final concentration of DMSO in each well appeared to be not toxic for all studied microorganisms, as confirmed by the solvent control test included in the study.
The MIC detection of C. albicans ATCC 10231 was performed using the broth microdilution method according to EUCAST guidelines in RPMI 1640 plus 2% glucose with a final inoculum of 1–5 x 10^5 CFU/mL for 24–48 h at 37°C. The Minimum Fungicidal Concentration (MFC) was determined as the lowest concentration of substances at which no fungal growth occurred on Sabouraud agar plates.
Data were obtained from at least three independent experiments performed in duplicate. The susceptibility of the bacterial strains against ciprofloxacin was used as an internal standard during MIC determinations.

[3] = Drug stability in simulated intestinal fluid with pancreatin; assay type: in vitro ADME; settings: 37°C, read-out: t½ (converted)
Experimental: (§1) The HPLC system consisted of a Waters 600 HPLC pump (Waters Corporation, Milford, MA, USA), equipped with a Waters 2996 photodiode array detector. The column was a Kinetex RP-C8 column (3.0 x 150 mm, 5 μm). The mobile phase consisted of 0.1% TFA in acetonitrile/0.1% TFA in 95% H2O and 5% acetonitrile 50:50, under isocratic conditions at a flow rate of 1 mL/min. The UV detector was set at a length of 220 nm.
(§2) To assess enzymatic stability, hydrochloric buffer with pepsin (10 or 40 mg/mL) and phosphate buffer with pancreatin (10 or 40 mg/mL) were used. Buffer solution (250 μL) was preincubated at 37°C and 50 μL of drug stock solution (50 μM in ethanol and FASSIF 1:9) were added and shaken at 37°C and 650 rpm. Samples of 100 μL were withdrawn at various times and 100 µL of ice-cold acetonitrile containing 0.5 v/v% formic acid were added to stop enzymatic activity. Samples were vortexed and centrifuged at 2°C and 10000 rpm for 10 min. The drug content in the supernatant was analyzed by HPLC.

pancreatin = experiment: as above; assay type: in vitro ADME; settings: 37°C
Experimental: as §1, §2

C. albicans ATCC 10231 [4] = experiment: Antibiofilm assay on established biofilm (BIC/BEC); assay type: cell-based
Experimental: (§3) The efficacy on established biofilm was evaluated by determining Biofilm Inhibitory Concentration (BIC) and Biofilm Eradication Concentration (BEC) according to the method described by Johnson et al. with some modifications. Bacterial suspensions, grown in Tryptic soy broth supplemented with 0.5% (v/v) glucose at logarithmic phase, as well as C. albicans grown in RPMI 1640 plus 2% glucose, were incubated on flat-bottomed microtiter plates at a concentration of 5 x 10^5 CFU/mL. After 24 h of incubation at 37°C, the planktonic cells were gently removed and wells were washed with sterile phosphate-buffered saline solution (PBS) pH 7.3 and filled with carvacrol, carvacrol codrug 4, Ac-Cys(Allyl)-OH with dilutions ranging from the MIC values to a maximum concentration of 50 mg/mL. The OD600 was measured at time 0 and after incubation for 24 h at 37°C. The BIC values were determined as the lowest concentrations where no growth occurred in the supernatant fluid, confirmed by no increase in optical density compared with the initial reading. The BEC values were determined as the lowest concentrations at which no bacterial growth occurred on Tryptic soy agar for bacteria and on Sabouraud agar for C. albicans. Data were obtained from at least three independent experiments performed in duplicate.

P. aeruginosa ATCC 9027 = experiment: Antibiofilm assay on established biofilm (BIC/BEC); assay type: cell-based
Experimental: as §3

E. coli ATCC 8739 = experiment: Antibiofilm assay on established biofilm (BIC/BEC); assay type: cell-based
Experimental: as §3

S. aureus ATCC 29213 = experiment: Antibiofilm assay on established biofilm (BIC/BEC); assay type: cell-based; settings: S. aureus ATCC 29213 established biofilm
Experimental: as §3

[5] = system: S. epidermidis ATCC 35984; experiment: Antibiofilm assay on established biofilm (BIC/BEC); assay type: cell-based
Experimental: as §3

pepsin = experiment: Drug stability in simulated gastric fluid with pepsin; assay type: in vitro ADME; settings: for kobs: 37°C
Experimental: as §1, §2

[6] = as above; assay type: in vitro ADME; settings: 37°C, read-out: t½ (converted)
Experimental: as §1, §2

[7] = SIF pH 7.4, pancreatin 10 mg/mL

MIC (C. albicans ATCC 10231 [2]; C. albicans ATCC 10231, 24–48 h at 37°C, read-out: MIC): 1250 µg/mL (≈ 3.73 mM)
half-life at 8.3 µM ([3]; simulated intestinal fluid with pancreatin 10 mg/mL, pH 7.4, SIF pH 7.4, pancreatin 10 mg/mL): 5.5 h
half-life at 8.3 µM ([3]; simulated intestinal fluid with pancreatin 40 mg/mL, pH 7.4, SIF pH 7.4, pancreatin 40 mg/mL): ~1 h
kobs (pancreatin; [7]): 0.126 (± 0.003) h^-1
t½ (pancreatin; [7]): 5.51 (± 0.13) h
kobs (pancreatin; SIF pH 7.4, pancreatin 40 mg/mL): 0.83 (± 0.02) h^-1
BEC as multiple of MIC (C. albicans ATCC 10231 [4]; C. albicans ATCC 10231): 8MIC
BIC as multiple of MIC (C. albicans ATCC 10231 [4]; C. albicans ATCC 10231): 8MIC
BEC as multiple of MIC (P. aeruginosa ATCC 9027; P. aeruginosa ATCC 9027): 2MIC
BEC as multiple of MIC (E. coli ATCC 8739; E. coli ATCC 8739): 16MIC
BIC as multiple of MIC (E. coli ATCC 8739; E. coli ATCC 8739): 8MIC
BEC as multiple of MIC ([5]; S. epidermidis ATCC 35984): 8MIC
BIC as multiple of MIC ([5]; S. epidermidis ATCC 35984): 2MIC
kobs (pepsin; SGF pH 1.3, pepsin 10 mg/mL): 0.009 (± 0.001) h^-1
kobs (pepsin; SGF pH 1.3, pepsin 40 mg/mL): 0.119 (± 0.003) h^-1
stability at pH 1.3 respect to pH 7.4 (pepsin; in the presence of pepsin and pancreatin (10 mg/mL)): 13 fold
half-life at 8.3 µM ([6]; simulated gastric fluid with pepsin 10 mg/mL, pH 1.3, SGF pH 1.3, pepsin 10 mg/mL): > 74 h
half-life at 8.3 µM ([6]; simulated gastric fluid with pepsin 40 mg/mL, pH 1.3, SGF pH 1.3, pepsin 40 mg/mL): 5.79 h
SMILES: C=CCSC[C@H](NC(C)=O)C(=O)Oc1cc(C(C)C)ccc1C [codrug 4, N-Ac-Cys(Allyl)-CAR]
concentration at which hemolytic activity is over 50% ([1]; 4% h-RBC, 1 h at 37°C): 5000 µg/mL
hemolysis / toxicity at MIC values (in words) ([1]; h-RBC, at MIC values): not toxic at the MIC values
MFC (C. albicans ATCC 10231 [2]; C. albicans ATCC 10231, read-out: MFC): 1250 µg/mL (≈ 3.73 mM)
BEC (C. albicans ATCC 10231 [4]; C. albicans ATCC 10231 established biofilm): 10 mg/mL
BIC (C. albicans ATCC 10231 [4]; C. albicans ATCC 10231 established biofilm, 24 h): 10 mg/mL
BEC (P. aeruginosa ATCC 9027; P. aeruginosa ATCC 9027 established biofilm): 10 mg/mL
BIC (P. aeruginosa ATCC 9027; P. aeruginosa ATCC 9027 established biofilm, 24 h): 5 mg/mL
BEC (E. coli ATCC 8739; E. coli ATCC 8739 established biofilm): 40 mg/mL
BIC (E. coli ATCC 8739; E. coli ATCC 8739 established biofilm, 24 h): 20 mg/mL
BEC (S. aureus ATCC 29213): 10 mg/mL
BIC (S. aureus ATCC 29213; 24 h): 5 mg/mL
BEC ([5]; S. epidermidis ATCC 35984 established biofilm): 20 mg/mL
BIC ([5]; S. epidermidis ATCC 35984 established biofilm, 24 h): 5 mg/mL
